Data as given in US6713455B2, “6-O-carbamate-11,12-lacto-ketolide antimicrobials” (Ortho-McNeil Pharmaceutical, Inc., priority 2001, dated 2004).
In brackets after ≈: the same amount, converted by molar mass.

How the values were obtained:
Test in all cases: MIC, microdilution broth method (NCCLS)
Format in all cases: cell-based
Conditions in all cases: 35° C., 16-20 hours
E. faecalis ATCC29212 = system: E. faecalis ATCC29212
Experimental: (§1) Minimal inhibitory concentration (MIC) has been an indicator of in vitro antibacterial activity widely used in the art. The in vitro antimicrobial activity of the compounds was determined by the microdilution broth method following the test method from the National Committee for Clinical Laboratory Standards (NCCLS). This method is described in the NCCLS Document M7-A4, Vol.17, No.2, “Methods for Dilution Antimicrobial Susceptibility Test for Bacteria that Grow Aerobically—Fourth Edition”, which is incorporated herein by reference.
(§2) In this method two-fold serial dilutions of drug in cation adjusted Mueller-Hinton broth are added to wells in microdilution trays. The test organisms are prepared by adjusting the turbidity of actively growing broth cultures so that the final concentration of test organism after it is added to the wells is approximately 5×10^4 CFU/well.
(§3) Following inoculation of the microdilution trays, the trays are incubated at 35° C. for 16-20 hours and then read. […] The amount of growth in the wells containing the test compound is compared with the amount of growth in the growth-control wells (no test compound) used in each tray. As set forth in Table 1, compounds of the present invention were tested against a variety of Gram positive and Gram negative pathogenic bacteria resulting in a range of activities depending on the organism tested.

H. influenzae ATCC49247 = system: H. influenzae ATCC49247
Experimental: as §1, §2, §3

S. pneumoniae ATCC49619 = system: S. pneumoniae ATCC49619
Experimental: as §1, §2, §3

S. aureus ATCC29213 = system: S. aureus ATCC29213
Experimental: as §1, §2, §3

E. coli OC2605 = system: E. coli OC2605
Experimental: as §1, §2, §3

Row | SMILES | MIC (μg/mL) C (E. faecalis ATCC29212) | MIC (μg/mL) E (H. influenzae ATCC49247) | MIC (μg/mL) D (S. pneumoniae ATCC49619) | MIC (μg/mL) B (S. aureus ATCC29213) | MIC (μg/mL) A (E. coli OC2605) | MIC (E. faecalis ATCC29212; Enterococcus faecalis) | MIC (H. influenzae ATCC49247; Haemophilus influenzae) | MIC (S. pneumoniae ATCC49619; Streptococcus pneumoniae) | MIC (S. aureus ATCC29213; Staphylococcus aureus) | MIC (E. coli OC2605; Escherichia coli)
1 | CCC1OC(=O)C(C)C(=O)C(C)C(OC2OC(C)CC(N(C)C)C2O)C(C)(OC(=O)NCc2ccc3ccccc3n2)CC(C)C(=O)C(C)C2CC(=O)OC12C (stereo not drawn) [Compound 28] | 0.5 µg/mL (≈ 0.639 µM) | 8 µg/mL (≈ 10.2 µM) | 0.12 µg/mL (≈ 0.153 µM) | 2 µg/mL (≈ 2.56 µM) | >16 µg/mL |  |  |  |  | 
2 | CCC1OC(=O)C(C)C(=O)C(C)C(OC2OC(C)CC(N(C)C)C2O)C(C)(OC(=O)NCC=Cc2ccc(-c3ccccn3)cc2)CC(C)C(=O)C(C)C2CC(=O)OC12C (stereo not drawn) [Compound 29] | 0.25 µg/mL (≈ 0.3 µM) | 2 µg/mL (≈ 2.4 µM) | 0.06 µg/mL (≈ 0.0719 µM) | 0.5 µg/mL (≈ 0.6 µM) | >16 µg/mL |  |  |  |  | 
3 | CCC1OC(=O)C(C)C(=O)C(C)C(OC2OC(C)CC(N(C)C)C2O)C(C)(OC(=O)NCC=Cc2ccc3cccnc3c2)CC(C)C(=O)C(C)C2CC(=O)OC12C (stereo not drawn) [Compound 31] | 0.06 µg/mL (≈ 0.0743 µM) | >16 µg/mL | 0.03 µg/mL (≈ 0.0371 µM) | 0.25 µg/mL (≈ 0.309 µM) | 16 µg/mL (≈ 19.8 µM) |  |  |  |  | 
4 | CCC1OC(=O)C(C)C(=O)C(C)C(OC2OC(C)CC(N(C)C)C2O)C(C)(OC(=O)NCC=Cc2ccc(-c3ncccn3)cc2F)CC(C)C(=O)C(C)C2CC(=O)OC12C (stereo not drawn) [Compound 32] | 0.25 µg/mL (≈ 0.293 µM) | 8 µg/mL (≈ 9.38 µM) | 0.06 µg/mL (≈ 0.0703 µM) | 0.5 µg/mL (≈ 0.586 µM) | >16 µg/mL |  |  |  |  | 
5 | CCC1OC(=O)C(C)C(=O)C(C)C(OC2OC(C)CC(N(C)C)C2O)C(C)(OC(=O)NCC=Cc2ccccn2)CC(C)C(=O)C(C)C2CC(=O)OC12C (stereo not drawn) [Compound 33] | 0.5 µg/mL (≈ 0.66 µM) | 8 µg/mL (≈ 10.6 µM) | 0.12 µg/mL (≈ 0.158 µM) | 2 µg/mL (≈ 2.64 µM) | >16 µg/mL |  |  |  |  | 
6 | CCC1OC(=O)C(C)C(=O)C(C)C(OC2OC(C)CC(N(C)C)C2O)C(C)(OC(=O)NCC=Cc2cccnc2)CC(C)C(=O)C(C)C2CC(=O)OC12C (stereo not drawn) [Compound 34] | 0.12 µg/mL (≈ 0.158 µM) | 2 µg/mL (≈ 2.64 µM) | 0.06 µg/mL (≈ 0.0792 µM) | 0.5 µg/mL (≈ 0.66 µM) | >16 µg/mL |  |  |  |  | 
7 | CCC1OC(=O)C(C)C(=O)C(C)C(OC2OC(C)CC(N(C)C)C2O)C(C)(OC(=O)NCC=Cc2ccc(-c3ccccc3)nc2)CC(C)C(=O)C(C)C2CC(=O)OC12C (stereo not drawn) [Compound 35] | 0.25 µg/mL (≈ 0.3 µM) | 4 µg/mL (≈ 4.8 µM) | 0.12 µg/mL (≈ 0.144 µM) | 0.5 µg/mL (≈ 0.6 µM) | >16 µg/mL |  |  |  |  | 
8 | CCC1OC(=O)C(C)C(=O)C(C)C(OC2OC(C)CC(N(C)C)C2O)C(C)(OC(=O)NCc2ccc(C=Cc3ccc4ccccc4n3)cc2)CC(C)C(=O)C(C)C2CC(=O)OC12C (stereo not drawn) [Compound 36] | 1 µg/mL (≈ 1.13 µM) | 16 µg/mL (≈ 18.1 µM) | 0.25 µg/mL (≈ 0.283 µM) | 4 µg/mL (≈ 4.52 µM) | >16 µg/mL |  |  |  |  | 
9 | CC[C@H]1OC(=O)[C@H](C)C(=O)[C@H](C)[C@@H](OC2O[C@H](C)C[C@H](N(C)C)[C@H]2O)[C@](C)(OC(=O)NC/C=C/c2cn(-c3ncccn3)cn2)C[C@@H](C)C(=O)C(C)C2CC(=O)O[C@@]21C (stereo partly drawn) [Compound 37] |  |  |  |  |  | 0.12 µg/mL (≈ 0.145 µM) | 4 µg/mL (≈ 4.85 µM) | 0.03 µg/mL (≈ 0.0364 µM) | 0.5 µg/mL (≈ 0.606 µM) | > 16 µg/mL
10 | CCC1OC(=O)C(C)C(=O)C(C)C(OC2OC(C)CC(N(C)C)C2O)C(C)(OC(=O)NCC=Cc2ccc3nccnc3c2)CC(C)C(=O)C(C)C2CC(=O)OC12C (stereo not drawn) [Compound 38] | 0.12 µg/mL (≈ 0.148 µM) | 2 µg/mL (≈ 2.47 µM) | 0.03 µg/mL (≈ 0.0371 µM) | 0.5 µg/mL (≈ 0.618 µM) | >16 µg/mL |  |  |  |  | 
11 | CCC1OC(=O)C(C)C(=O)C(C)C(OC2OC(C)CC(N(C)C)C2O)C(C)(OC(=O)NCC=Cc2ccnc3ccccc23)CC(C)C(=O)C(C)C2CC(=O)OC12C (stereo not drawn) [Compound 39] | 0.12 µg/mL (≈ 0.149 µM) | 4 µg/mL (≈ 4.95 µM) | 0.03 µg/mL (≈ 0.0371 µM) | 0.5 µg/mL (≈ 0.619 µM) | 16 µg/mL (≈ 19.8 µM) |  |  |  |  | 
12 | CCC1OC(=O)C(C)C(=O)C(C)C(OC2OC(C)CC(N(C)C)C2O)C(C)(OC(=O)NCC=Cc2cncc(-c3ncccn3)c2)CC(C)C(=O)C(C)C2CC(=O)OC12C (stereo not drawn) [Compound 40] | 0.12 µg/mL (≈ 0.144 µM) | 1 µg/mL (≈ 1.2 µM) | 0.03 µg/mL (≈ 0.0359 µM) | 0.25 µg/mL (≈ 0.299 µM) | 16 µg/mL (≈ 19.1 µM) |  |  |  |  | 
